“And” between values parts separate entries of the source, which are not always exact repeats. Equal values may be shown once. “Also recorded” adds a separate entry of the source. Read-outs that look alike come from different tables or passages of the source. One block for each compound: values may come before it.
Key:
[1] = system: HL-60 cells; experiment: HL-60 differentiation (nitro blue tetrazolium reduction); format: cell-based, human; settings: FIG. 2
Protocol: The study drugs were dissolved in ethanol and the concentrations determined using UV spectrophotometry. Serial dilutions were prepared so that a range of drug concentrations could be tested without changing the final concentration of ethanol ([…]) present in the cell cultures.
Human promyelocytic leukemia (HL60) cells were grown in RPMI-1640 medium containing 10% fetal bovine serum. The cells were incubated at 37° C. in the presence of 5% CO2.
HL60 cells were plated at 1.2×10^5 cells/ml. Eighteen hours after plating, cells in duplicate were treated with drug. Four days later, the cells were harvested and a nitro blue tetrazolium reduction assay was performed (Collins et al., 1979; J. Exp. Med. 149:969-974). The percentage of differentiated cells was determined by counting a total of 200 cells and recording the number that contained intracellular black-blue formazan deposits. Verification of differentiation to monocytic cells was determined by measuring phagocytic activity (data not shown).

[2] = target: T1, recombinant vitamin D receptor (Rattus norvegicus, UniProt P13053); experiment: Vitamin D receptor binding (competitive, 3H-1,25(OH)2D3)
T1 construct: Fun-length recombinant rat receptor was expressed in E. coli; histidine tag (C); made in house; host or cells: E. coli BL21(DE3) Codon Plus RIL
T1 sequence (P13053 1-423): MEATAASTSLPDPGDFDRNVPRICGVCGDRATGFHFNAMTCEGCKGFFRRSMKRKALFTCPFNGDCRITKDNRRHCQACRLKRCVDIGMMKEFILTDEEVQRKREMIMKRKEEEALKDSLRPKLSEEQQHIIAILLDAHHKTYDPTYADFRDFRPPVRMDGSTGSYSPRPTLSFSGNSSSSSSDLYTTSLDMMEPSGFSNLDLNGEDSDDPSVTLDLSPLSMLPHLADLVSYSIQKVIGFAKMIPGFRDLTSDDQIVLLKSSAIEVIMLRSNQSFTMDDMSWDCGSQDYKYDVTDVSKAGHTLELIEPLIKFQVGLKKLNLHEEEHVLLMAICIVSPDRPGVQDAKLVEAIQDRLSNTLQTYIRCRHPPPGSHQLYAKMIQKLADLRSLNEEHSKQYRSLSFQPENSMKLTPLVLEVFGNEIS
Protocol: Fun-length recombinant rat receptor was expressed in E. coli BL21(DE3) Codon Plus RIL cells and purified to homogeneity using two different column chromatography systems. The first system was a nickel affinity resin that utilizes the C-terminal histidine tag on this protein. The protein that was eluted from this resin was further purified using ion exchange chromatography (S-Sepharose Fast How). Aliquots of the purified protein were quick frozen in liquid nitrogen and stored at −80° C. until use. For use in binding assays, the protein was diluted in TEDK50 (50 mM […], 1.5 mM EDTA, pH 7.4, 5 mM DTT, 150 mM KCl) with 0.1% Chaps detergent. The receptor protein and ligand concentration was optimized such that no more than 20% of the added radiolabeled ligand was bound to the receptor.
Unlabeled ligands were dissolved in ethanol and the concentrations determined using UV spectrophotometry (1,25(OH)2D3: molar extinction coefficient=18,200 and λmax=265 nm; Analogs: molar extinction coefficient=42,000 and λmax=252 nm). Radiolabeled ligand (^3H-1,25(OH)2D3, ˜159 Ci/mmole) was added in ethanol at a final concentration of 1 nM.
Radiolabeled and unlabeled ligands were added to […] of the diluted protein at a final ethanol concentration of ≦10%, mixed and incubated overnight on ice to reach binding equilibrium. […] Total binding was determined from the tubes containing only radiolabeled ligand.

[3] = system: 24-hydroxylase (24OHase) gene promoter; experiment: In vitro transcription assay (24-hydroxylase promoter-luciferase in ROS 17/2.8 bone cells); format: cell-based; settings: FIG. 3
Protocol: Transcription activity was measured in ROS 17/2.8 (bone) cells that were stably transfected with a 24-hydroxylase (24OHase) gene promoter upstream of a luciferase reporter gene (Arbour et al., 1998). Cells were given a range of doses. Sixteen hours after dosing the cells were harvested and luciferase activities were measured using a luminometer. RLU=relative luciferase units.

[4] = system: Sprague-Dawley rats; experiment: Bone calcium mobilization (serum calcium); format: in vivo, rat; settings: for Bone calcium mobilization (change from vehicle, mg/dL): vehicle subtracted
Protocol: (§1) Male, weanling Sprague-Dawley rats were placed on Diet 11 (0.47% Ca) diet+AEK oil for one week followed by Diet 11 (0.02% Ca)+AEK oil for 3 weeks. The rats were then switched to a diet containing 0.47% Ca for one week followed by two weeks on a diet containing 0.02% Ca. Dose administration began during the last week on 0.02% calcium diet. Four consecutive intraperitoneal doses were given approximately 24 hours apart. Twenty-four hours after the last dose, blood was collected from the severed neck and the concentration of serum calcium determined as a measure of bone calcium mobilization. The first 10 cm of the intestine was also collected for intestinal calcium transport analysis using the everted gut sac method.

[5] = system: Sprague-Dawley rats; experiment: Intestinal calcium transport (everted gut sac method); format: in vivo, rat; settings: for Intestinal calcium transport (change from vehicle, serosal/mucosal ratio): vehicle subtracted
Protocol: as §1

[6] = system: Sprague-Dawley rats; settings: cited from earlier work; for Intestinal calcium transport (change from vehicle, serosal/mucosal ratio): as reported by Grzywacz et al. 2007
[7] = system: Sprague-Dawley rats; settings: cited from earlier work; for Bone calcium mobilization (change from vehicle, mg/dL): as reported by Grzywacz et al. 2007
[8] = 260 pmol dose, data of Grzywacz et al. 2007

Binding to the nuclear vitamin D receptor compared with 1,25(OH)2D3 (in words) ([2]; FIG. 1): same affinity as 1,25(OH)2D3
SMILES: C=C1[C@H](O)CC(=C/C=C2\CCC[C@@]3(C)C2CCC3[C@@H](C)CCCCC)C[C@H]1O (stereo in doubt) [26N, 2-methylene-19,26-nor-(20S)-1α-hydroxyvitamin D3]
Potency in causing differentiation of HL-60 cells into monocytes compared with 1,25(OH)2D3 (in words) [1]: same potency as 1,25(OH)2D3
Potency in causing differentiation of HL-60 cells into monocytes compared with 1,25(OH)2D3 (in words) ([1]; listed as 2-Methylene-19,26-nor-(20S)-1α-hydroxyvitamin D3): same potency as 1,25-(OH)2D3
Binding to the nuclear vitamin D receptor compared with 1,25(OH)2D3 (in words) ([2]; FIG. 1, listed as 2-Methylene-19,26-nor-(20S)-1α-hydroxyvitamin D3): approximately equally effective as 1,25-(OH)2D3
Potency in increasing transcription of the 24-hydroxylase gene compared with 1,25(OH)2D3 (in words) ([3]; ROS 17/2.8 bone cells): about one log less potent than 1,25(OH)2D3
Times less potent than 1,25-(OH)2D3 in stimulating 24-OHase gene expression ([3]; bone cells): about 10 times
Bone calcium mobilization (calcemic) activity, in words ([4]; 260 pmol dose): essentially no calcemic activity
Bone calcium mobilization activity, in words ([4]; 7020 pmol): little bone calcium mobilization activity
Times less active than 1,25-(OH)2D3 on bone calcium mobilization ([4]; as shown at the dose of 7020 pmol, FIG. 4B): ~30 times
Calcemic activity (bone calcium mobilization), in words ([4]; overall, FIGS. 4A, 4B): very low
Times less potent than 1,25(OH)2D3 in releasing bone calcium stores ([4]; rat, FIGS. 4A and 4B): approximately 30 times
Bone calcium mobilization (change from vehicle, mg/dL) ([4]; rat, dose level 260 pmol, four intraperitoneal doses): -0.1 mg/dL
Bone calcium mobilization (change from vehicle, mg/dL) ([4]; rat, dose level 7020 pmol): 0.6 mg/dL and 0.8 mg/dL
Bone calcium mobilization (change from vehicle, mg/dL) ([4]; rat, dose level 35100 pmol): 4.0 mg/dL
Intestinal calcium transport (calcemic) activity, in words ([5]; 260 pmol dose): essentially no calcemic activity
Calcemic activity (intestinal calcium transport), in words ([5]; overall, FIGS. 5A, 5B): very low; also recorded: noticeably less active than 1,25-(OH)2D3
Times less potent than 1,25(OH)2D3 in promoting active calcium transport in the rat gut ([5]; rat, FIGS. 5A and 5B): at least 10 times
Intestinal calcium transport (change from vehicle, serosal/mucosal ratio) ([5]; rat, dose level 260 pmol): 0.1 serosal/mucosal ratio
Intestinal calcium transport (change from vehicle, serosal/mucosal ratio) ([5]; rat, dose level 7020 pmol): 8.7 serosal/mucosal ratio and 7.2 serosal/mucosal ratio
Intestinal calcium transport (change from vehicle, serosal/mucosal ratio) ([5]; rat, dose level 35100 pmol): 4.6 serosal/mucosal ratio

SMILES: C=C1[C@H](O)CC(=C/C=C2\CCC[C@]3(C)[C@@H]([C@@H](C)CCCC(C)C)CC[C@@H]23)C[C@H]1O [26Me, 2-methylene-19-nor-(20S)-1α-hydroxyvitamin D3]
Intestinal calcium transport activity, in words [6, 8]: significant activity
Intestinal calcium transport (change from vehicle, serosal/mucosal ratio) ([6]; dose level 87 pmol): 6.6 serosal/mucosal ratio
Intestinal calcium transport (change from vehicle, serosal/mucosal ratio) ([6]; dose level 260 pmol): 5.3 serosal/mucosal ratio
Intestinal calcium transport (change from vehicle, serosal/mucosal ratio) ([6]; dose level 780 pmol): 2.3 serosal/mucosal ratio
Intestinal calcium transport (change from vehicle, serosal/mucosal ratio) ([6]; dose level 2340 pmol): 5.4 serosal/mucosal ratio
Bone calcium mobilization activity, in words [7, 8]: significant activity
Bone calcium mobilization (change from vehicle, mg/dL) ([7]; dose level 87 pmol): 2.0 mg/dL
Bone calcium mobilization (change from vehicle, mg/dL) ([7]; dose level 260 pmol): 4.0 mg/dL
Bone calcium mobilization (change from vehicle, mg/dL) ([7]; dose level 780 pmol): 5.3 mg/dL
Bone calcium mobilization (change from vehicle, mg/dL) ([7]; dose level 2340 pmol): 5.6 mg/dL
Bone calcemic activity as multiple of that of 26N ([4]; at 2340 pmol versus 26N at the higher dose of 7020 pmol): ~10 times
